Species: Rattus norvegicus
Assay: Open TG-GATES - Regimen: Daily Repeat
Assay type: toxicity, organism-based, Sprague-Dawley
Design: regimen Daily Repeat, gender Male, age 6 weeks
Details: in vivo, po, route gavage; for APTT / Bas / Eos / Fbg / Hb / Ht / Lym / MCH / MCHC / MCV / Mono / Neu / PT / Plat / RBC / Ret / WBC: tissue Blood; for KIDNEY_L / KIDNEY_R / KIDNEY_TOTAL: tissue Kidney; for LIVER: tissue Liver; for ALP / ALT / AST / BUN / CRE / Ca / DBIL / GLC / IP / K / LDH / Na / PL / RALB / TBIL / TC / TP / gamma-GTP / TG: tissue Plasma
[1] = 50 mg/kg, 72 h, dose level Middle, time 3 day
[2] = 50 mg/kg, […], dose level Middle, time 7 day
[3] = 50 mg/kg, […], dose level Middle, time 14 day
[4] = 50 mg/kg, […], dose level Middle, time 28 day
[5] = 150 mg/kg, 72 h, dose level High, time 3 day
[6] = 150 mg/kg, […], dose level High, time 7 day
[7] = 150 mg/kg, […], dose level High, time 14 day
[8] = 150 mg/kg, […], dose level High, time 28 day

**Q.** What does the source list for `Oc1ncnc2[nH]ncc12` [ALLOPURINOL]?
**A.** APTT [1]: 16.2 s; Bas [1]: 0%; Eos [1]: 1.4%; Fbg [1]: 261.6 mg/dL; Hb [1]: 13.5 g/dL; Ht [1]: 40%; Lym [1]: 75%; MCH [1]: 21.9 pg; MCHC [1]: 33.7%; MCV [1]: 64.9 fL; Mono [1]: 9.2%; Neu [1]: 14.4%; PT [1]: 12.3 s; Plat [1]: 108.7 x10_4/uL; RBC [1]: 618 x10_4/ul; Ret [1]: 6.3%; WBC [1]: 139.1 x10_2/uL; KIDNEY_L [1]: 1.2 g; KIDNEY_R [1]: 1.2 g; KIDNEY_TOTAL [1]: 2.3 g; LIVER [1]: 11.5 g; ALP [1]: 918 IU/L; ALT [1]: 33.8 IU/L; AST [1]: 65.8 IU/L; BUN [1]: 20.6 mg/dL; CRE [1]: 0.5 mg/dL; Ca [1]: 11.1 mg/dL; DBIL [1]: 0.004 mg/dL; GLC [1]: 194.4 mg/dL; IP [1]: 7 mg/dL; K [1]: 4.7 meq/L; LDH [1]: 111.4 IU/L; Na [1]: 138.2 meq/L; PL [1]: 150 mg/dL; RALB [1]: 3.9 g/dL; TBIL [1]: 0.3 mg/dL; TC [1]: 79.4 mg/dL; TP [1]: 6.1 g/dL; gamma-GTP [1]: 2 IU/L; TERMINAL_BW [2]: 270.7 g; TERMINAL_BW [3]: 308.6 g; TERMINAL_BW [4]: 380.1 g; APTT [2]: 16.4 s; Bas [2]: 0%; Eos [2]: 0.4%; Fbg [2]: 246 mg/dL; Hb [2]: 14.2 g/dL; Ht [2]: 42.3%; Lym [2]: 86.4%; MCH [2]: 21.4 pg; MCHC [2]: 33.6%; MCV [2]: 63.9 fL; Mono [2]: 3.8%; Neu [2]: 9.4%; PT [2]: 11.8 s; Plat [2]: 120 x10_4/uL; RBC [2]: 661.2 x10_4/ul; Ret [2]: 5.3%; WBC [2]: 129.4 x10_2/uL; APTT [3]: 16.5 s; Bas [3]: 0%; Eos [3]: 0.6%; Fbg [3]: 232.2 mg/dL; Hb [3]: 14.9 g/dL; Ht [3]: 44.6%; Lym [3]: 84%; MCH [3]: 20.8 pg; MCHC [3]: 33.4%; MCV [3]: 62.2 fL; Mono [3]: 3.6%; Neu [3]: 12.2%; PT [3]: 11.9 s; Plat [3]: 111.6 x10_4/uL; RBC [3]: 716 x10_4/ul; Ret [3]: 4.2%; WBC [3]: 114 x10_2/uL; APTT [4]: 16.8 s; Bas [4]: 0%; Eos [4]: 1%; Fbg [4]: 225.6 mg/dL; Hb [4]: 15.2 g/dL; Ht [4]: 45%; Lym [4]: 78.8%; MCH [4]: 19.8 pg; MCHC [4]: 33.8%; MCV [4]: 58.5 fL; Mono [4]: 4.8%; Neu [4]: 15.6%; PT [4]: 12.1 s; Plat [4]: 101.2 x10_4/uL; RBC [4]: 770.4 x10_4/ul; Ret [4]: 2.9%; WBC [4]: 128.2 x10_2/uL; KIDNEY_L [2]: 1.2 g; KIDNEY_R [2]: 1.2 g; KIDNEY_TOTAL [2]: 2.4 g; KIDNEY_L [3]: 1.3 g; KIDNEY_R [3]: 1.3 g; KIDNEY_TOTAL [3]: 2.5 g; KIDNEY_L [4]: 1.5 g; KIDNEY_R [4]: 1.5 g; KIDNEY_TOTAL [4]: 3.1 g; LIVER [2]: 13.3 g; LIVER [3]: 14 g; LIVER [4]: 15.1 g; ALP [2]: 917.6 IU/L; ALT [2]: 33.4 IU/L; AST [2]: 64 IU/L; BUN [2]: 20.2 mg/dL; CRE [2]: 0.5 mg/dL; Ca [2]: 11.4 mg/dL; DBIL [2]: 0.034 mg/dL; GLC [2]: 207.2 mg/dL; IP [2]: 7.6 mg/dL; K [2]: 4.3 meq/L; LDH [2]: 87 IU/L; Na [2]: 140.2 meq/L; PL [2]: 158.2 mg/dL; RALB [2]: 3.9 g/dL; TBIL [2]: 0.3 mg/dL; TC [2]: 74.4 mg/dL; TG [2]: 144.4 mg/dL; TP [2]: 6.1 g/dL; gamma-GTP [2]: 1.2 IU/L; ALP [3]: 645.2 IU/L; ALT [3]: 29.8 IU/L; AST [3]: 63 IU/L; BUN [3]: 20.2 mg/dL; CRE [3]: 0.6 mg/dL; DBIL [3]: 0.002 mg/dL; GLC [3]: 200 mg/dL; IP [3]: 7.5 mg/dL; K [3]: 4.5 meq/L; LDH [3]: 71.2 IU/L; Na [3]: 139.6 meq/L; PL [3]: 147.4 mg/dL; RALB [3]: 3.8 g/dL; TBIL [3]: 0.3 mg/dL; TC [3]: 65.8 mg/dL; TG [3]: 131.2 mg/dL; TP [3]: 6.2 g/dL; gamma-GTP [3]: 1.6 IU/L; ALP [4]: 574.8 IU/L; ALT [4]: 29.2 IU/L; AST [4]: 60.6 IU/L; BUN [4]: 22 mg/dL; CRE [4]: 0.6 mg/dL; DBIL [4]: 0.014 mg/dL; GLC [4]: 187.4 mg/dL; IP [4]: 6.3 mg/dL; K [4]: 4.6 meq/L; LDH [4]: 63.6 IU/L; Na [4]: 139.4 meq/L; PL [4]: 145.8 mg/dL; RALB [4]: 4 g/dL; TBIL [4]: 0.3 mg/dL; TC [4]: 66 mg/dL; TG [4]: 147 mg/dL; TP [4]: 6.3 g/dL; gamma-GTP [4]: 1.6 IU/L; TERMINAL_BW [5]: 225 g; APTT [5]: 15.8 s; Bas [5]: 0%; Eos [5]: 0.8%; Fbg [5]: 368.2 mg/dL; Hb [5]: 14 g/dL; Ht [5]: 41.8%; Lym [5]: 70.2%; MCH [5]: 21.7 pg; MCHC [5]: 33.4%; MCV [5]: 65.1 fL; Mono [5]: 13%; Neu [5]: 16%; PT [5]: 12.5 s; Plat [5]: 115.9 x10_4/uL; RBC [5]: 642.4 x10_4/ul; Ret [5]: 5.2%; WBC [5]: 122.6 x10_2/uL; KIDNEY_L [5]: 1.6 g; KIDNEY_R [5]: 1.7 g; KIDNEY_TOTAL [5]: 3.2 g; LIVER [5]: 9.7 g; ALP [5]: 838.2 IU/L; ALT [5]: 27.6 IU/L; AST [5]: 61.2 IU/L; BUN [5]: 35.2 mg/dL; CRE [5]: 0.8 mg/dL; Ca [5]: 11.5 mg/dL; DBIL [5]: 0 mg/dL; GLC [5]: 192 mg/dL; IP [5]: 8 mg/dL; K [5]: 4.8 meq/L; LDH [5]: 165.4 IU/L; Na [5]: 139 meq/L; PL [5]: 142 mg/dL; RALB [5]: 3.8 g/dL; TBIL [5]: 0.3 mg/dL; TC [5]: 87 mg/dL; TG [5]: 47.8 mg/dL; TP [5]: 6.3 g/dL; gamma-GTP [5]: 4.2 IU/L; TERMINAL_BW [6]: 245.1 g; TERMINAL_BW [7]: 248.1 g; TERMINAL_BW [8]: 319.9 g; APTT [6]: 16.2 s; Bas [6]: 0%; Eos [6]: 1%; Fbg [6]: 300.7 mg/dL; Hb [6]: 14.2 g/dL; Ht [6]: 42.6%; Lym [6]: 77.7%; MCH [6]: 21 pg; MCHC [6]: 33.2%; MCV [6]: 63.2 fL; Mono [6]: 6.7%; Neu [6]: 15.3%; PT [6]: 12.9 s; Plat [6]: 122.5 x10_4/uL; RBC [6]: 676.7 x10_4/ul; Ret [6]: 2.8%; WBC [6]: 161 x10_2/uL; APTT [7]: 16.1 s; Bas [7]: 0%; Eos [7]: 1%; Fbg [7]: 414 mg/dL; Hb [7]: 14.4 g/dL; Ht [7]: 42.8%; Lym [7]: 52%; MCH [7]: 19.8 pg; MCHC [7]: 33.5%; MCV [7]: 59 fL; Mono [7]: 7%; Neu [7]: 40.4%; PT [7]: 13.3 s; RBC [7]: 725 x10_4/ul; Ret [7]: 2.1%; WBC [7]: 209.4 x10_2/uL; APTT [8]: 15.3 s; Bas [8]: 0%; Eos [8]: 0.5%; Fbg [8]: 319.5 mg/dL; Hb [8]: 13.7 g/dL; Ht [8]: 40.8%; Lym [8]: 74.8%; MCH [8]: 19.2 pg; MCHC [8]: 33.6%; MCV [8]: 57.1 fL; Mono [8]: 3.2%; Neu [8]: 21%; PT [8]: 13 s; Plat [8]: 117.9 x10_4/uL; RBC [8]: 713.5 x10_4/ul; Ret [8]: 3.9%; WBC [8]: 344.2 x10_2/uL; KIDNEY_L [6]: 1.8 g; KIDNEY_R [6]: 1.9 g; KIDNEY_TOTAL [6]: 3.7 g; KIDNEY_L [7]: 2.8 g; KIDNEY_R [7]: 2.9 g; KIDNEY_TOTAL [7]: 5.7 g; KIDNEY_L [8]: 3 g; KIDNEY_R [8]: 2.7 g; KIDNEY_TOTAL [8]: 5.6 g; LIVER [8]: 12.1 g; ALP [6]: 697 IU/L; ALT [6]: 24.7 IU/L; AST [6]: 60.7 IU/L; BUN [6]: 38.7 mg/dL; CRE [6]: 0.8 mg/dL; Ca [6]: 11 mg/dL; DBIL [6]: 0.0367 mg/dL; GLC [6]: 190 mg/dL; IP [6]: 5.6 mg/dL; K [6]: 4.6 meq/L; LDH [6]: 96.3 IU/L; Na [6]: 141.3 meq/L; PL [6]: 139.7 mg/dL; RALB [6]: 3.8 g/dL; TBIL [6]: 0.2 mg/dL; TC [6]: 80.7 mg/dL; TG [6]: 64.3 mg/dL; TP [6]: 6.2 g/dL; gamma-GTP [6]: 3 IU/L; ALP [7]: 608.6 IU/L; ALT [7]: 23.4 IU/L; AST [7]: 62.8 IU/L; BUN [7]: 66.2 mg/dL; CRE [7]: 1 mg/dL; DBIL [7]: 0 mg/dL; GLC [7]: 177 mg/dL; IP [7]: 5.1 mg/dL; K [7]: 4.5 meq/L; LDH [7]: 150.8 IU/L; Na [7]: 140.2 meq/L; PL [7]: 154.8 mg/dL; RALB [7]: 3.3 g/dL; TBIL [7]: 0.3 mg/dL; TC [7]: 91.2 mg/dL; TP [7]: 6.1 g/dL; gamma-GTP [7]: 6 IU/L; ALP [8]: 482 IU/L; ALT [8]: 29.8 IU/L; AST [8]: 68.8 IU/L; BUN [8]: 61.2 mg/dL; CRE [8]: 1.1 mg/dL; Ca [8]: 11.3 mg/dL; DBIL [8]: 0.015 mg/dL; GLC [8]: 163.5 mg/dL; IP [8]: 5.2 mg/dL; K [8]: 4.8 meq/L; LDH [8]: 150.8 IU/L; Na [8]: 141.5 meq/L; PL [8]: 162.5 mg/dL; RALB [8]: 3.7 g/dL; TBIL [8]: 0.2 mg/dL; TC [8]: 98.2 mg/dL; TG [8]: 79 mg/dL; TP [8]: 6.3 g/dL; gamma-GTP [8]: 3.8 IU/L

From ChEMBL document CHEMBL3885861, “Open TG-GATES”
